Measured values taken from patent US20260285850A1, “SUBSTITUTED OXAZOLIDINONES AND IMIDAZOLINONES AS HERBICIDES” (FMC CORPORATION, priority 2023, published 2026).

Legend:
Type in all cases: in vivo
[1] = test system: green foxtail (Setaria viridis); assay: Test A postemergence application, visual injury rating 0-100
Outline: (§1)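 Visual injury ratings (0, no effect; 100, complete control) were assigned relative to untreated plants 10 days after treatment. Test chemicals, formulated with a surfactant-containing non-phytotoxic solvent, were applied in loam-sand soil either as a directed soil spray before emergence or to emerged plants, and plants were kept in a greenhouse.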

[2] = test system: horseweed (Erigeron canadensis); assay: as above
Outline: as §1

[3] = test system: ragweed (common ragweed, Ambrosia artemisiifolia); assay: as above
Outline: as §1

kochia (Bassia scoparia) [4] = assay: as above
Outline: as §1

[5] = test system: ryegrass, Italian (italian ryegrass, Lolium multiflorum); assay: as above
Outline: as §1

[6] = test system: palmer (palmer amaranth, palmer pigweed, Amaranthus palmeri); assay: as above
Outline: as §1

corn (Zea mays) [7] = assay: as above
Outline: as §1

[8] = test system: barnyardgrass (Echinochloa crus-galli); assay: as above
Outline: as §1

[9] = test system: oat, wild (wild oat, Avena fatua); assay: as above
Outline: as §1

[10] = test system: blackgrass (Alopecurus myosuroides); assay: as above
Outline: as §1

[11] = test system: wheat (Triticum aestivum); assay: as above
Outline: as §1

[12] = test system: galium (catchweed bedstraw, Galium aparine); assay: as above
Outline: as §1

soybean (Glycine max) [13] = assay: as above
Outline: as §1

[14] = test system: green foxtail (Setaria viridis); assay: Test A preemergence soil spray, visual injury rating 0-100; details: 10 days
Outline: as §1

[15] = test system: ragweed (common ragweed, Ambrosia artemisiifolia); assay: as above; details: 10 days
Outline: as §1

kochia (Bassia scoparia) [16] = assay: as above; details: 10 days
Outline: as §1

[17] = test system: ryegrass, Italian (italian ryegrass, Lolium multiflorum); assay: as above; details: 10 days
Outline: as §1

corn (Zea mays) [18] = assay: as above; details: 10 days
Outline: as §1

[19] = test system: barnyardgrass (Echinochloa crus-galli); assay: as above; details: 10 days
Outline: as §1

[20] = test system: oat, wild (wild oat, Avena fatua); assay: as above; details: 10 days
Outline: as §1

[21] = test system: blackgrass (Alopecurus myosuroides); assay: as above; details: 10 days
Outline: as §1

[22] = test system: wheat (Triticum aestivum); assay: as above; details: 10 days
Outline: as §1

soybean (Glycine max) [23] = assay: as above; details: 10 days
Outline: as §1

[24] = test system: sedge, umbrella (small-flower umbrella sedge, Cyperus difformis); assay: Test B flooded paddy test, visual plant response rating 0-100; details: 250 g ai/ha, Flood, applied to paddy water, evaluated after 13 days
Outline: (§2)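 Each species was raised to two leaves before flooding to a 3 cm depth and dosing the water with compound. Injury was assessed by eye after 13 days under greenhouse conditions.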

rice (Oryza sativa) = assay: as above; details: 250 g ai/ha, Flood, applied to paddy water, evaluated after 13 days
Outline: as §2

[25] = test system: ducksalad (Heteranthera limosa); assay: as above; details: 250 g ai/ha, Flood, applied to paddy water, evaluated after 13 days
Outline: as §2

[26] = test system: barnyardgrass (Echinochloa crusgalli); assay: as above; details: 250 g ai/ha, Flood, applied to paddy water, evaluated after 13 days
Outline: as §2

[27] = 62 g ai/ha, postemergence, 10 days, 0 = no effect, 100 = complete control
[28] = Postemergence, 16 g ai/ha, greenhouse 10 days, 0 no effect, 100 complete control
[29] = 62 g ai/ha, 0 = no effect, 100 = complete control

Q: With `CSCCOC(=O)C1=CCC(NC(=O)C2(C)CN(c3cc(F)cc(Cl)c3)C(=O)O2)C1` (centres unmarked) [Compound 135] as the molecule, how does the “Foxtail, Green plant response rating (0-100)” value [1, 27] read?
A: 90

Q: And the “Foxtail, Green plant response rating (0 to 100 scale)” value [1, 28]?
A: 90

Q: What about the “Horseweed plant response rating (0-100)” value [2, 27] of the same molecule?
A: 90

Q: What about the “Horseweed plant response rating (0 to 100 scale)” value [2, 28] of the same molecule?
A: 70

Q: What about the “Ragweed plant response rating (0-100)” value [3, 27] of the same molecule?
A: 70

Q: And the “Ragweed plant response rating (0 to 100 scale)” value [3, 28]?
A: 40

Q: And the “Kochia plant response rating (0-100)” value (kochia (Bassia scoparia) [4]; [27])?
A: 90

Q: And the “Kochia plant response rating (0 to 100 scale)” value (kochia (Bassia scoparia) [4]; [28])?
A: 90

Q: What about the “Ryegrass, Italian plant response rating (0-100)” value [5, 27] of the same molecule?
A: 90

Q: And the “Ryegrass, Italian plant response rating (0 to 100 scale)” value [5, 28]?
A: 40

Q: And the “Pigweed, Palmer plant response rating (0-100)” value [6, 27]?
A: 90

Q: What about the “Pigweed, Palmer plant response rating (0 to 100 scale)” value [6, 28] of the same molecule?
A: 70

Q: What about the “Corn plant response rating (0-100)” value (corn (Zea mays) [7]; [27]) of the same molecule?
A: 100

Q: What about the “Corn plant response rating (0 to 100 scale)” value (corn (Zea mays) [7]; [28]) of the same molecule?
A: 100

Q: And the “Barnyardgrass plant response rating (0-100)” value [8, 27]?
A: 100

Q: And the “Barnyardgrass plant response rating (0 to 100 scale)” value [8, 28]?
A: 100

Q: And the “Oat, Wild plant response rating (0-100)” value [9, 27]?
A: 90

Q: And the “Oat, Wild plant response rating (0 to 100 scale)” value [9, 28]?
A: 30

Q: What about the “Blackgrass plant response rating (0-100)” value [10, 27] of the same molecule?
A: 100

Q: What about the “Blackgrass plant response rating (0 to 100 scale)” value [10, 28] of the same molecule?
A: 90

Q: And the “Wheat plant response rating (0-100)” value [11, 27]?
A: 90

Q: What about the “Wheat plant response rating (0 to 100 scale)” value [11, 28] of the same molecule?
A: 80

Q: What about the “Galium plant response rating (0-100)” value [12, 27] of the same molecule?
A: 80

Q: And the “Galium plant response rating (0 to 100 scale)” value [12, 28]?
A: 70

Q: What about the “Soybean plant response rating (0-100)” value (soybean (Glycine max) [13]; [27]) of the same molecule?
A: 80

Q: And the “Soybean plant response rating (0 to 100 scale)” value (soybean (Glycine max) [13]; [28])?
A: 60

Q: What about the “Foxtail, Green plant response rating” value ([14]; 16 g ai/ha, 0 to 100 scale) of the same molecule?
A: 0

Q: What about the “Foxtail, Green plant response rating (0-100)” value [14, 29] of the same molecule?
A: 80

Q: What about the “Ragweed plant response rating” value ([15]; 16 g ai/ha, 0 to 100 scale) of the same molecule?
A: 0

Q: And the “Ragweed plant response rating (0-100)” value [15, 29]?
A: 0

Q: What about the “Kochia plant response rating” value (kochia (Bassia scoparia) [16]; 16 g ai/ha, 0 to 100 scale) of the same molecule?
A: 0

Q: What about the “Kochia plant response rating (0-100)” value (kochia (Bassia scoparia) [16]; [29]) of the same molecule?
A: 20

Q: And the “Ryegrass, Italian plant response rating” value ([17]; 16 g ai/ha, 0 to 100 scale)?
A: 0

Q: And the “Ryegrass, Italian plant response rating (0-100)” value [17, 29]?
A: 90

Q: And the “Corn plant response rating” value (corn (Zea mays) [18]; 16 g ai/ha, 0 to 100 scale)?
A: 0

Q: And the “Corn plant response rating (0-100)” value (corn (Zea mays) [18]; [29])?
A: 70

Q: What about the “Barnyardgrass plant response rating” value ([19]; 16 g ai/ha, 0 to 100 scale) of the same molecule?
A: 20

Q: What about the “Barnyardgrass plant response rating (0-100)” value [19, 29] of the same molecule?
A: 50

Q: And the “Oat, Wild plant response rating” value ([20]; 16 g ai/ha, 0 to 100 scale)?
A: 20

Q: And the “Oat, Wild plant response rating (0-100)” value [20, 29]?
A: 30

Q: And the “Blackgrass plant response rating” value ([21]; 16 g ai/ha, 0 to 100 scale)?
A: 0

Q: What about the “Blackgrass plant response rating (0-100)” value [21, 29] of the same molecule?
A: 20

Q: What about the “Wheat plant response rating” value ([22]; 16 g ai/ha, 0 to 100 scale) of the same molecule?
A: 10

Q: What about the “Wheat plant response rating (0-100)” value [22, 29] of the same molecule?
A: 90

Q: What about the “Soybean plant response rating” value (soybean (Glycine max) [23]; 16 g ai/ha, 0 to 100 scale) of the same molecule?
A: 20

Q: And the “Soybean plant response rating (0-100)” value (soybean (Glycine max) [23]; [29])?
A: 20

Q: What about the “Plant response rating, Sedge, Umbrella (0 to 100 scale, 0 is no effect and 100 is complete control)” value [24] of the same molecule?
A: 95

Q: And the “Plant response rating, Rice (0 to 100 scale, 0 is no effect and 100 is complete control)” value (rice (Oryza sativa))?
A: 65

Q: And the “Plant response rating, Ducksalad (0 to 100 scale, 0 is no effect and 100 is complete control)” value [25]?
A: 65

Q: What about the “Plant response rating, Barnyardgrass (0 to 100 scale, 0 is no effect and 100 is complete control)” value [26] of the same molecule?
A: 90
